Test results reported in ChEMBL document CHEMBL1649349, “Discovery of a novel nitroimidazolyl-oxazolidinone hybrid with potent anti Gram-positive activity: Synthesis and antibacterial evaluation” (Eur J Med Chem, 2011).
Values after ≈ are worked out from the molar mass of the structure shown.

Key:
[1] = tested on: Klebsiella pneumoniae; test: Antimicrobial activity against Klebsiella pneumoniae ATCC 10031 by conventional agar-dilution method; format: functional
[2] = tested on: Mammaliicoccus lentus; test: Antimicrobial activity against Staphylococcus lentus ATCC 29070 by conventional agar-dilution method; format: functional
[3] = tested on: Staphylococcus epidermidis; test: Antimicrobial activity against Staphylococcus epidermidis ATCC 12228 by conventional agar-dilution method; format: functional
[4] = tested on: Pseudomonas aeruginosa; test: Antimicrobial activity against Pseudomonas aeruginosa ATCC 9027 by conventional agar-dilution method; format: functional
[5] = Cytotoxicity against mouse NIH/3T3 cells by MTT colorimetric assay; format: cell-based; settings: NIH3T3
[6] = tested on: Escherichia coli; test: Antimicrobial activity against Escherichia coli ATCC 8739 by conventional agar-dilution method; format: functional
[7] = tested on: Micrococcus luteus; test: Antimicrobial activity against Micrococcus luteus ATCC 9341 by conventional agar-dilution method; format: functional
[8] = tested on: Staphylococcus aureus; test: Antimicrobial activity against methicillin-resistant Staphylococcus aureus 3 by conventional agar-dilution method; format: functional
[9] = tested on: Staphylococcus saprophyticus; test: Antimicrobial activity against Staphylococcus saprophyticus ATCC 15305 by conventional agar-dilution method; format: functional
[10] = tested on: Bacillus subtilis; test: Antimicrobial activity against Bacillus subtilis PTCC 1023 by conventional agar-dilution method; format: functional
[11] = tested on: Staphylococcus warneri; test: Antimicrobial activity against Staphylococcus warneri ATCC 27836 by conventional agar-dilution method; format: functional
[12] = tested on: Staphylococcus aureus; test: Antimicrobial activity against methicillin-resistant Staphylococcus aureus 17 by conventional agar-dilution method; format: functional
[13] = tested on: Staphylococcus aureus; test: Antimicrobial activity against methicillin-resistant Staphylococcus aureus 5 by conventional agar-dilution method; format: functional
[14] = tested on: Staphylococcus aureus; test: Antimicrobial activity against Staphylococcus aureus ATCC 6538p by conventional agar-dilution method; format: functional
[15] = tested on: Staphylococcus xylosus; test: Antimicrobial activity against Staphylococcus xylosus ATCC 2997 by conventional agar-dilution method; format: functional
[16] = tested on: Corynebacterium glutamicum; test: Antimicrobial activity against Corynebacterium glutamicum ATCC 13032 by conventional agar-dilution method; format: functional

Structure (SMILES)	MIC [1] [µg/mL]	MIC [2] [µg/mL]	MIC [3] [µg/mL]	MIC [4] [µg/mL]	IC50 [5] [µg/mL]	MIC [6] [µg/mL]	MIC [7] [µg/mL]	MIC [8] [µg/mL]	MIC [9] [µg/mL]	MIC [10] [µg/mL]	MIC [11] [µg/mL]	MIC [12] [µg/mL]	MIC [13] [µg/mL]	MIC [14] [µg/mL]	MIC [15] [µg/mL]	MIC [16] [µg/mL]
CC(=O)NC[C@H]1CN(c2ccc(N3CCN(c4nnc(-c5ccc([N+](=O)[O-])s5)s4)CC3)c(F)c2)C(=O)O1	100 (≈ 183 µM)	0.098 (≈ 0.179 µM)	0.024 (≈ 0.0438 µM)	> 100	184 (≈ 336 µM)	> 100	6.25 (≈ 11.4 µM)	0.195 (≈ 0.356 µM)	0.195 (≈ 0.356 µM)	0.781 (≈ 1.43 µM)	0.049 (≈ 0.0895 µM)	0.098 (≈ 0.179 µM)	6.25 (≈ 11.4 µM)	0.098 (≈ 0.179 µM)	0.098 (≈ 0.179 µM)	6.25 (≈ 11.4 µM)
CC(=O)NC[C@H]1CN(c2ccc(N3CCN(c4nnc(-c5ccc([N+](=O)[O-])o5)s4)CC3)c(F)c2)C(=O)O1	50 (≈ 94.1 µM)	0.012 (≈ 0.0226 µM)	0.006 (≈ 0.0113 µM)	> 100	21.8 (≈ 41 µM)	> 100	0.391 (≈ 0.736 µM)	0.049 (≈ 0.0922 µM)	0.024 (≈ 0.0452 µM)	0.391 (≈ 0.736 µM)	0.006 (≈ 0.0113 µM)	0.012 (≈ 0.0226 µM)	0.195 (≈ 0.367 µM)	0.012 (≈ 0.0226 µM)	0.024 (≈ 0.0452 µM)	0.195 (≈ 0.367 µM)
CC(=O)NC[C@H]1CN(c2ccc(N3CCN(c4nnc(-c5ncc([N+](=O)[O-])n5C)s4)CC3)c(F)c2)C(=O)O1	0.781 (≈ 1.43 µM)	0.098 (≈ 0.18 µM)	0.024 (≈ 0.044 µM)	> 100	> 200	> 100	0.195 (≈ 0.357 µM)	0.391 (≈ 0.717 µM)	0.024 (≈ 0.044 µM)	0.098 (≈ 0.18 µM)	0.006 (≈ 0.011 µM)	0.024 (≈ 0.044 µM)	0.195 (≈ 0.357 µM)	0.098 (≈ 0.18 µM)	0.049 (≈ 0.0898 µM)	0.195 (≈ 0.357 µM)
CC(=O)NC[C@H]1CN(c2ccc(N3CCNCC3)c(F)c2)C(=O)O1	25 (≈ 74.3 µM)	12.5 (≈ 37.2 µM)	6.25 (≈ 18.6 µM)	> 100	> 200	50 (≈ 149 µM)	1.56 (≈ 4.65 µM)	25 (≈ 74.3 µM)	3.12 (≈ 9.29 µM)	12.5 (≈ 37.2 µM)	18 (≈ 53.5 µM)	25 (≈ 74.3 µM)	12.5 (≈ 37.2 µM)	12.5 (≈ 37.2 µM)	3.12 (≈ 9.29 µM)	1.56 (≈ 4.65 µM)
O=C(O)c1cn(C2CC2)c2cc(N3CCNCC3)c(F)cc2c1=O [CIPROFLOXACIN]	0.003 (≈ 0.00905 µM)	0.781 (≈ 2.36 µM)	0.391 (≈ 1.18 µM)	0.0391 (≈ 0.118 µM)	–	–	3.12 (≈ 9.43 µM)	0.391 (≈ 1.18 µM)	0.098 (≈ 0.296 µM)	0.195 (≈ 0.589 µM)	0.195 (≈ 0.589 µM)	0.391 (≈ 1.18 µM)	0.391 (≈ 1.18 µM)	0.195 (≈ 0.589 µM)	0.391 (≈ 1.18 µM)	0.391 (≈ 1.18 µM)
CC(=O)NC[C@H]1CN(c2ccc(N3CCOCC3)c(F)c2)C(=O)O1 [LINEZOLID]	6.25 (≈ 18.5 µM)	1.56 (≈ 4.63 µM)	0.781 (≈ 2.32 µM)	> 100	–	> 100	0.781 (≈ 2.32 µM)	0.781 (≈ 2.32 µM)	0.781 (≈ 2.32 µM)	0.391 (≈ 1.16 µM)	0.781 (≈ 2.32 µM)	0.781 (≈ 2.32 µM)	0.781 (≈ 2.32 µM)	0.781 (≈ 2.32 µM)	0.781 (≈ 2.32 µM)	0.781 (≈ 2.32 µM)
